Holding throughout (assay): microbe, parasite or virus in culture
Holding throughout (type): cell-based, Hepatitis C virus (HCV)

In one test the test system is HCV replicon 1AQ30D.
A further test deals with HCV replicon 1B. The settings on record: Replicon Assay B. Background: A replicon is a self-replicating genome or part of one, used to study replication in cells.
The subject of the next test is HCV replicon 1A. Particulars: Replicon Assay A. The essentials:
(§1)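 Replicon cells were seeded at 2000 cells/well with test compound in 0.5% DMSO and 5% FBS, then harvested on day 3. Replicon RNA was measured by multiplex TaqMan real-time RT-PCR, using cyclophilin RNA as the endogenous control and quantified against standard curves of HCV replicon total RNA.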

Another test has as its system HCV replicon 1AY93H. The essentials:
as §1

For a further test, the system named is HCV replicon 2B. The essentials: as §1
Setting [1] is: read-out: 1A Q30D IC50; HCV replicon 1A Q30D; Replicon Assay B.
Where [2] appears, read: read-out: 1A Y93H IC50; HCV replicon 1A Y93H; Replicon Assay A.
[3] abbreviates: read-out: 2B IC50; HCV replicon 2B; Replicon Assay A.
Where [4] appears, read: read-out: 1A Q30D IC50; replicon 1AQ30D; Replicon Assay B.
The mark [5] stands for this setting: read-out: 1A Y93H IC50; replicon 1AY93H; Replicon Assay A.
Where [6] appears, read: read-out: 2B IC50; replicon 2B; Replicon Assay A.
[7] abbreviates: Hepatitis C virus, read-out: 1A Q30D IC50 (nM), replicon 1AQ30D; Replicon Assay B.
Where [8] appears, read: Hepatitis C virus, read-out: 1A Y93H IC50 (nM), replicon 1AY93H; Replicon Assay A.
The mark [9] stands for this setting: Hepatitis C virus, read-out: 2B IC50 (nM), replicon 2B; Replicon Assay A.

SMILES strings stand for the structures. pIC50: −log10 of the molar value. Read-outs that look alike come from different tables or passages of the source.

For `COC(=O)N[C@H](C(=O)N1CCC[C@H]1c1ncc(-c2ccc3c(c2)OC(c2ccc(C4CC4)s2)n2c-3c(F)c3cc(-c4cnc([C@@H]5C[C@H]6C[C@H]6N5C(=O)[C@@H](NC(=O)OC)C(C)C)[nH]4)ccc32)[nH]1)C(C)C` (single isomer, unassigned) [Compound 613], the pIC50 in the test with HCV replicon 1AQ30D (setting [1]) is 9.00; with HCV replicon 1B (HCV replicon 1B), 11.64; with HCV replicon 1A (HCV replicon 1A), 11.60; with HCV replicon 1AY93H (setting [2]), 10.80; in the test on HCV replicon 2B (setting [3]), 9.47.

As for `COC(=O)N[C@H](C(=O)N1CCC[C@H]1c1ncc(-c2ccc3c(c2)cc2n3C(c3ccc(C4CC4)s3)Oc3cc(-c4cnc([C@@H]5CCCN5C(=O)[C@@H](NC(=O)OC)C5CCOCC5)[nH]4)cc(C)c3-2)[nH]1)C(C)C` (single isomer, unassigned) [Compound 122], the pIC50 was 10.54 in the test with HCV replicon 1AQ30D (setting [4]); 11.64 in the test with HCV replicon 1B (Hepatitis C virus, replicon 1B); 11.70 with HCV replicon 1A (Hepatitis C virus, replicon 1A); 11.15 in the test with HCV replicon 1AY93H (setting [5]); 11.52 in the test on HCV replicon 2B (setting [6]).

Regarding `COC(=O)NC(C(=O)N1CCC[C@H]1c1ncc(-c2ccc3c(c2)cc2n3C(c3ccc(C(F)F)s3)Oc3cc(-c4cnc([C@@H]5CCCN5C(=O)[C@@H](NC(=O)OC)C(C)C)[nH]4)cc(F)c3-2)[nH]1)C1C[C@@H](C)O[C@@H](C)C1` (single isomer, unassigned) [Compound 266], the IC50 in the test with HCV replicon 1AQ30D (setting [7]) was 0.051 nM. The pIC50 in the test on HCV replicon 1B (Hepatitis C virus, replicon 1B) was 11.82; in the test with HCV replicon 1A (Hepatitis C virus, replicon 1A), 11.96; in the test with HCV replicon 1AY93H (setting [5]) it was 11.52; in the test with HCV replicon 2B (setting [6]), 11.10.

Take `COC(=O)NC(C(=O)N1CCC[C@H]1c1ncc(-c2ccc3c(c2)cc2n3C(c3ccc(C(C)C)s3)Oc3cc(-c4cnc([C@@H]5CCCN5C(=O)[C@@H](NC(=O)OC)C(C)C)[nH]4)cc(C)c3-2)[nH]1)C1C[C@@H](C)O[C@@H](C)C1` (single isomer, unassigned) [Compound 366]: in the test with HCV replicon 1AQ30D (setting [7]), the IC50 stood at 0.0759 nM. In addition, the pIC50 was 11.82 in the test on HCV replicon 1B (Hepatitis C virus, replicon 1B); 11.72 with HCV replicon 1A (replicon 1A); 10.91 in the test on HCV replicon 1AY93H (setting [5]); 11.28 in the test on HCV replicon 2B (setting [6]).

Take `COC(=O)NC(C(=O)N1[C@@H]2C[C@@H]2C[C@H]1c1ncc(-c2ccc3c(c2)cc2n3C(c3ccc(CC4CC4)s3)Oc3cc(-c4cnc([C@@H]5CCCN5C(=O)[C@@H](NC(=O)OC)C(C)C)[nH]4)cc(F)c3-2)[nH]1)C1CCOC(C)(C)C1` (single isomer, unassigned) [Compound 419]: the pIC50 in the test with HCV replicon 1AQ30D (setting [1]) is 10.04; in the test on HCV replicon 1B (HCV replicon 1B) it was 11.08; with HCV replicon 1A (HCV replicon 1A) it was 11.14; in the test on HCV replicon 1AY93H (setting [2]), 11.14; in the test with HCV replicon 2B (setting [3]), 10.88.

For `COC(=O)N[C@H](C(=O)N1CCC[C@H]1c1ncc(-c2cc(F)c3c(c2)OC(c2ccc(C4CC4)s2)n2c-3cc3cc(-c4cnc([C@@H]5C[C@H]6C[C@H]6N5C(=O)[C@@H](NC(=O)OC)C5CCOCC5)[nH]4)ccc32)[nH]1)C(C)C` (single isomer, unassigned) [Compound 652], the pIC50 is 9.49 with HCV replicon 1AQ30D (HCV replicon 1A Q30D; Replicon Assay B; read-out: 1A Q30D IC50); 11.77 in the test with HCV replicon 1B (HCV replicon 1B); 11.92 in the test with HCV replicon 1A (HCV replicon 1A); 10.48 with HCV replicon 1AY93H (HCV replicon 1A Y93H; Replicon Assay A; read-out: 1A Y93H IC50); 10.27 in the test with HCV replicon 2B (HCV replicon 2B; Replicon Assay A; read-out: 2B IC50).

For the compound `COC(=O)N[C@H](C(=O)N1CCC[C@H]1c1ncc(-c2cc(F)c3c(c2)OC(c2cc(C4CC4)cs2)n2c-3cc3cc(-c4cnc([C@@H]5CCCN5C(=O)[C@@H](NC(=O)OC)C(C)C)[nH]4)ccc32)[nH]1)C(C)C` (single isomer, unassigned) [Compound 23], the pIC50 in the test on HCV replicon 1AQ30D (setting [4]) is 8.76; with HCV replicon 1B (Hepatitis C virus, replicon 1B), 11.41; in the test on HCV replicon 1A (Hepatitis C virus, replicon 1A) it was 11.49; in the test with HCV replicon 1AY93H (setting [5]), 9.62; in the test with HCV replicon 2B (setting [6]) it was 9.11.

On to `COC(=O)NC(C(=O)N1CCC[C@H]1c1ncc(-c2ccc3c(c2)cc2n3C(c3ccc(CC4CC4)s3)Oc3cc(-c4cnc([C@@H]5CCCN5C(=O)[C@@H](NC(=O)OC)C(C)C)[nH]4)cc(F)c3-2)[nH]1)C1CCO[C@H](C)C1` (single isomer, unassigned) [Compound 367], for which the pIC50 in the test on HCV replicon 1AQ30D (setting [4]) was 9.44; in the test on HCV replicon 1B (Hepatitis C virus, replicon 1B), 11.47; in the test on HCV replicon 1A (Hepatitis C virus, replicon 1A), 11.68; with HCV replicon 1AY93H (setting [5]) it was 10.46; in the test on HCV replicon 2B (setting [6]), 10.65.

Take `CCc1ccc(C2Oc3cc(-c4cnc([C@@H]5CCCN5C(=O)[C@@H](NC(=O)OC)C(C)C)[nH]4)cc(F)c3-c3cc4cc(-c5cnc([C@@H]6CCCN6C(=O)[C@H](NC(=O)OC)C6C[C@@H](C)O[C@@H](C)C6)[nH]5)ccc4n32)s1` (stereo partly drawn) [Compound 144]: the IC50 in the test on HCV replicon 1AQ30D (setting [7]) was found to be 0.057 nM; in the test with HCV replicon 1AY93H (setting [8]), 0.003 nM; with HCV replicon 2B (setting [9]), 0.022 nM. Moreover, the pIC50 was 11.68 in the test with HCV replicon 1B (Hepatitis C virus, replicon 1B) and 11.52 in the test on HCV replicon 1A (Hepatitis C virus, replicon 1A).

As to `CCc1ccc(C2Oc3cc(-c4cnc([C@@H]5CCCN5C(=O)[C@@H](NC(=O)OC)C(C)C)[nH]4)cc(F)c3-c3cc4cc(-c5cnc([C@@H]6CCCN6C(=O)[C@@H](NC(=O)OC)C(C)C)[nH]5)ccc4n32)s1` (single isomer, unassigned) [Compound 3], the figures for the IC50 in the test on HCV replicon 1AQ30D (setting [7]), in the test with HCV replicon 1AY93H (setting [8]) and with HCV replicon 2B (setting [9]) were 50.6 nM, 4.7 nM and 4.45 nM, respectively. The pIC50 was 11.92 in the test with HCV replicon 1B (Hepatitis C virus, replicon 1B) and 11.44 in the test with HCV replicon 1A (Hepatitis C virus, replicon 1A).

With `COC(=O)N[C@H](C(=O)N1[C@@H]2C[C@@H]2C[C@H]1c1ncc(-c2ccc3c(c2)OC(c2ccc(C4CC4)s2)n2c-3cc3cc(-c4cnc([C@@H]5C[C@H]6C[C@H]6N5C(=O)[C@@H](NC(=O)OC)C(C)C)[nH]4)ccc32)[nH]1)C(C)C` (single isomer, unassigned) [Compound 8], the pIC50 in the test with HCV replicon 1AQ30D (replicon 1AQ30D; Replicon Assay B; read-out: 1A Q30D IC50) was 9.33; with HCV replicon 1B (replicon 1B) it was 11.57; in the test with HCV replicon 1A (replicon 1A), 10.76; with HCV replicon 1AY93H (replicon 1AY93H; Replicon Assay A; read-out: 1A Y93H IC50) it was 9.48; in the test on HCV replicon 2B (replicon 2B; Replicon Assay A; read-out: 2B IC50) it was 9.85.

Regarding `CCc1ccc(C2Oc3cc(-c4cnc([C@@H]5CCCN5C(=O)[C@@H](NC(=O)OC)C(C)C)[nH]4)cc(F)c3-c3cc4cc(-c5cnc([C@@H]6C[C@H]7C[C@H]7N6C(=O)C(NC(=O)OC)C6CCOC(C)(C)C6)[nH]5)ccc4n32)s1` (single isomer, unassigned) [Compound 201], the pIC50 in the test on HCV replicon 1AQ30D (setting [4]) is 10.82; in the test on HCV replicon 1B (replicon 1B), 11.66; with HCV replicon 1A (replicon 1A), 11.82; in the test on HCV replicon 1AY93H (setting [5]), 11.70; with HCV replicon 2B (setting [6]) it was 11.10.

In the case of `COC(=O)N[C@H](C(=O)N1CCC[C@H]1c1ncc(-c2cc(F)c3c(c2)OC(c2cc4c(s2)CCC4)n2c-3cc3cc(-c4cnc([C@@H]5C[C@H]6C[C@H]6N5C(=O)[C@@H](NC(=O)OC)C5CCOCC5)[nH]4)ccc32)[nH]1)C(C)C` (single isomer, unassigned) [Compound 542], the pIC50 with HCV replicon 1AQ30D (setting [1]) is 9.79; in the test on HCV replicon 1B (HCV replicon 1B), 11.43; in the test with HCV replicon 1A (HCV replicon 1A), 11.47; in the test on HCV replicon 1AY93H (setting [2]) it was 11.07; in the test on HCV replicon 2B (setting [3]), 10.47.

For `COC(=O)N[C@H](C(=O)N1CCC[C@H]1c1ncc(-c2cc(C)c3c(c2)OC(c2ccc(C4CC4)s2)n2c-3cc3cc(-c4cnc([C@@H]5C[C@H]6C[C@H]6N5C(=O)[C@@H](NC(=O)OC)C5CCOCC5)[nH]4)ccc32)[nH]1)C(C)C` (single isomer, unassigned) [Compound 764], the pIC50 in the test on HCV replicon 1AQ30D (setting [1]) was 10.62; in the test on HCV replicon 1B (HCV replicon 1B) it was 11.66; in the test with HCV replicon 1A (HCV replicon 1A) it was 11.44; in the test on HCV replicon 1AY93H (setting [2]) it was 11.36; with HCV replicon 2B (setting [3]), 11.28.

Regarding `COC(=O)N[C@H](C(=O)N1CCC[C@H]1c1ncc(-c2cc(F)c3c(c2)OC(c2cc4c(s2)CCC4)n2c-3cc3cc(-c4cnc([C@@H]5C[C@H]6C[C@H]6N5C(=O)[C@@H](NC(=O)OC)C5C[C@@H](C)O[C@@H](C)C5)[nH]4)ccc32)[nH]1)C(C)C` (single isomer, unassigned) [Compound 553], the pIC50 with HCV replicon 1AQ30D (setting [1]) is 9.15; in the test with HCV replicon 1B (HCV replicon 1B), 10.32; with HCV replicon 1A (HCV replicon 1A), 10.36; in the test with HCV replicon 1AY93H (setting [2]), 10.40; in the test with HCV replicon 2B (setting [3]) it was 9.66.

One may read the pIC50 as −log10 of the IC50, conventionally taken in molar units. One may read the IC50 as the concentration that gives 50% inhibition.

For the origin of these results see patent publication US20160257697A1, “THIOPHENE-SUBSTITUTED TETRACYCLIC COMPOUNDS AND METHODS OFUSE THEREOF FOR THE TREATMENT OF VIRAL DISEASES” (priority 2013, published 2016).
